Measured values reported in patent US10414721B1, “Inhibitor of endocannabinoid cellular reuptake” (University of Bern, priority 2018, dated 2019).
Read-outs that look alike come from different tables or passages of the source.

Key:
[1] = tested on: AEA uptake in primary mouse cortical neurons; test: AEA uptake in primary mouse cortical neurons; format: cell-based; details: Cortical neurone
Procedure: (§1) All radioactivity-based AEA and 2-AG uptake and release assays performed in U937, and HMC-1 cells were carried out using two different assay formats as previously reported. AEA and 2-AG uptake assay in Neuro2a and primary mouse cortical neurons were performed with a different method disclosed in Chicca 2017.

[2] = tested on: 2-AG uptake in U937 cells; test: 2-AG uptake inhibition in U937 cells; format: cell-based
Procedure: as §1

MAGL = target: T1, MAGL (Mus musculus, UniProt O35678); test: MAGL activity (ABPP and radioactivity-based hydrolytic assays); format: biochemical; details: ABPP in mouse brain homogenate and hydrolytic assays
T1 construct: membrane preparations obtained from mouse brains; from tissue; host or cells: mouse brain membranes
Procedure: (§2) ABPP experiments were performed using membrane preparations obtained from mouse brains as described earlier.
(§3) FAAH, ABHDs, MAGL and COX-2 activity assays were performed using cell homogenates, human recombinant enzymes and mouse, rat and pig brain homogenates as previously described.

ABHD6 = target: T2, ABHD6 (Mus musculus, UniProt Q8R2Y0); test: ABHD6 activity (ABPP and radioactivity-based hydrolytic assays); format: biochemical; details: ABPP in mouse brain homogenate and hydrolytic assays
T2 construct: membrane preparations obtained from mouse brains; from tissue; host or cells: mouse brain membranes
Procedure: as §2, §3

ABHD12 = target: T3, ABHD12 (Mus musculus, UniProt Q99LR1); test: ABHD12 activity (ABPP and radioactivity-based hydrolytic assays); format: biochemical; details: ABPP in mouse brain homogenate and hydrolytic assays
T3 construct: membrane preparations obtained from mouse brains; from tissue; host or cells: mouse brain membranes
Procedure: as §2, §3

COX-2 = COX-2 (Homo sapiens, UniProt P35354); test: COX-2 activity assay; format: biochemical
Procedure: as §3

[3] = target: fatty acid binding protein 5 (FABP5) (Homo sapiens, UniProt Q01469); test: FABP5 binding
[4] = 14C-WOBE437 saturation binding to mouse brain membranes; details: binding kinetics, high affinity site; read-out: affinity for membrane binding site
Procedure: In addition to their effects on AEA uptake, the inhibition of FAAH was thoroughly investigated for all nanomolar inhibitors. […] The lack of significant FAAH inhibition by WOBE437 was established in different assay systems using human recombinant enzyme, cell and brain homogenates. […] Importantly, WOBE437 (1 μM) inhibited AEA uptake also in primary mouse cortical neurons by 50% after 2-7 min of incubation with a smaller inhibition (20-35%) upon longer incubation (10-20 min, FIG. 1F). […] In Neuro2a cells, incubation with WOBE437 (5 μM) for 2 and 5 min reduced overall uptake by 40%. (FIG. 1G). […] Then cells were treated with radiolabeled ^14C-WOBE437 to investigate the cellular penetration of the compound. In U937 cells, the vast majority of the radioactive signal was collected in the extracellular and membrane-bound fractions (75-90%), with negligible amounts (5-9%) detected in the intracellular fraction (FIGS. 2A-D). […] In order to further investigate this point, ^14C-WOBE437 was applied to membrane preparations generated in-house from mouse brain and U937 cells. […] The Kd values are in line with the IC50 values shown in the functional AEA uptake assays in Neuro2a and U937 cells (FIGS. 1C and 1D). In further experiments, 10 nM of ^14C-WOBE437 was co-incubated with different concentrations of AEA and U937 membranes. […] Furthermore, the endocannabinoids AEA and noladin ether and the AEA uptake inhibitor OMDM-2 could compete with ^14C-WOBE437 binding in brain and U937 membranes. […] Secondary plots of the slope (Kmapp/Vmaxapp vs. [WOBE437]) and intercept (1/Vmaxapp vs. [WOBE437]) confirmed the competitive inhibition of AEA uptake.

CB1 receptor = CB1 receptor (Homo sapiens, UniProt P21554); test: CB1 receptor binding assay
Procedure: CB1 and CB2 receptor binding assays [^35S]GTPγS assays were performed as previously described. WOBE437 was profiled in more detail in an extended CNS adverse drug reaction screening panel (CEREP).

[5] = Oral bioavailability and tissue distribution; format: in vivo, mouse; details: for Cmax: read-out: apparent Cmax in plasma; for concentration at 20 min: oral, read-out: plasma level
Procedure: Male C57BL6/J or male BALB/c mice were orally administered by gavage with 10, 25, 50 or 100 mg/kg of WOBE437 (100 μL; olive oil and ethanol 8:2) using a metal feeding needle (20G, Kent Scientific, USA). The mice were sacrificed by decapitation after gavage administration. Brain, blood, liver, kidney and spleen were collected for the LC-MS/MS analyses. All tissues were briefly washed with ice cold PBS and immediately snap-frozen and stored at −80° C. Whole brain samples were dissected between the hemispheres. Blood samples were immediately centrifuged to obtain plasma, which was stored at −80° C.
Samples extractions and LC-MS/MS measurements were performed as previously described (Chicca et al., 2017). Briefly, tissues were weighted and transferred in to extraction tubes containing three steel beads and 0.1 M formic acid. Tissues were homogenized and rapidly transferred to glass tubes containing 1.5 mL of ethyl acetate:hexane (9:1) 0.1% formic acid and internal standards (ISs). Samples were centrifuged and the organic phase was recovered. After evaporation, the extracts were reconstituted in 200 μL of ACN:ddH2O (8:2). 10 μL of the solution were injected in the LC-MS/MS system using the same LC and ionization protocols as described (Chicca et al., 2017).

[6] = Hot plate test after oral administration; format: in vivo, mouse; details: male, BALB/c, mouse, in vivo; from effective doses 50 mg/kg p.o. vs 10 mg/kg i.p.; read-out: overall bioavailability compared to the i.p. administration route
Procedure: (§4) Acute pain was evaluated 1 h after gavage administration of WOBE437, at 10, 25, 50 and 100 mg/kg in BALB/c mice. The test was performed using a clean 54-56° C. hot plate (Thermo Scientific, USA) with a Plexiglas cylinder. The latency to show the first nociceptive response (paw lick or foot shake) was measured. In order to evaluate CB1 receptor antagonism, 5 mg/kg of rimonabant (Pharmasery AG, Switzerland) was injected intraperitoneally (i.p.) (20 μL, in DMSO) 30 min before WOBE437 administration.

BALB/c male mice = test: Hot plate test after oral administration; format: in vivo, mouse
Procedure: as §4

T1 sequence (O35678 whole entry): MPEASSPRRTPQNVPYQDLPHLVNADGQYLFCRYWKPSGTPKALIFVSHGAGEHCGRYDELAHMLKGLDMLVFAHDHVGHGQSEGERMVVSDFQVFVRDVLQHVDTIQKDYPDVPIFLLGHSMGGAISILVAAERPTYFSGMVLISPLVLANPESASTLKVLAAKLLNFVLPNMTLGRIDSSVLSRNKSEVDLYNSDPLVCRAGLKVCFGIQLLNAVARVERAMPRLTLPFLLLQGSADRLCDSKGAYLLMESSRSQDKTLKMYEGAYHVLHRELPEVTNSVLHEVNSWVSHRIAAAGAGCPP
fatty acid binding protein 5 (FABP5), sequence (Q01469 whole entry, species assumed): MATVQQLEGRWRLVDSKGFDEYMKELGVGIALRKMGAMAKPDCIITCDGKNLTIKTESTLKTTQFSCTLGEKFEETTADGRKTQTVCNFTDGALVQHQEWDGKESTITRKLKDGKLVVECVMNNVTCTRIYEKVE
COX-2, sequence (P35354 18-604): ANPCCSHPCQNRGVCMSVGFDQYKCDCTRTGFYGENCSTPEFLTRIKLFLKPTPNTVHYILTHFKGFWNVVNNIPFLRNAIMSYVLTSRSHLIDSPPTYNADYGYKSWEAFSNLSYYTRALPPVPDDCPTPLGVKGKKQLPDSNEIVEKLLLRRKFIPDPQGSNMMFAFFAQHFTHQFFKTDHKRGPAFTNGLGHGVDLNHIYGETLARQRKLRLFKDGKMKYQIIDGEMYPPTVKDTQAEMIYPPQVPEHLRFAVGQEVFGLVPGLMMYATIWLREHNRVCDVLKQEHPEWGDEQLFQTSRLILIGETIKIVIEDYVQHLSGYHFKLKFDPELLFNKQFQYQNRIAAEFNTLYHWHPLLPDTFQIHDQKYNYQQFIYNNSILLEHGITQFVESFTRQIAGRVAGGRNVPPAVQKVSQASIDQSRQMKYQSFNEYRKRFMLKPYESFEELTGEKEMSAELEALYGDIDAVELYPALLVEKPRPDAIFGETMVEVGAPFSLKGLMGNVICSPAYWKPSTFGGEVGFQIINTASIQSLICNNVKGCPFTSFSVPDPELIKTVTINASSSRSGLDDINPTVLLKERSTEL
CB1 receptor, sequence (P21554 whole entry): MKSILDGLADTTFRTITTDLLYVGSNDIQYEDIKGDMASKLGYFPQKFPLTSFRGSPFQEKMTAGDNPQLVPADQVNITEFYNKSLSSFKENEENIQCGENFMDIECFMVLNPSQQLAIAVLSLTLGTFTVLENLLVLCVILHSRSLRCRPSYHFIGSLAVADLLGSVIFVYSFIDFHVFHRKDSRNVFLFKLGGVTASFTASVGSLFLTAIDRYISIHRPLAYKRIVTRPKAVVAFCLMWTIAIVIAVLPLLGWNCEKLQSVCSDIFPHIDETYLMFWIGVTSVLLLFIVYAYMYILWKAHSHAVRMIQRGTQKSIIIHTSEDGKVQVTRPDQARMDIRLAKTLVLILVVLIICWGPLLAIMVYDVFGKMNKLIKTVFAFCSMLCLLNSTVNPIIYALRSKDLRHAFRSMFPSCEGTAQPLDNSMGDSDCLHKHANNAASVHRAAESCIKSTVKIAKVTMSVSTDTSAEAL
T2 sequence (Q8R2Y0 whole entry): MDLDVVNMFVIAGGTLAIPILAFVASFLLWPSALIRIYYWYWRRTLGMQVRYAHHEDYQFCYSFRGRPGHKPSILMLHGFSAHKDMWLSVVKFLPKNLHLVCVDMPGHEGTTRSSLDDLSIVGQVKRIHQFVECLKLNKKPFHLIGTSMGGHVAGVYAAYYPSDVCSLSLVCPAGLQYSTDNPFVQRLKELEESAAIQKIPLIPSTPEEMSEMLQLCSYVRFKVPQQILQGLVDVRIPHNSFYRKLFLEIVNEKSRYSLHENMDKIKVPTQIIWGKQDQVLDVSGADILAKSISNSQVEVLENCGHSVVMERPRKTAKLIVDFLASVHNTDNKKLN
T3 sequence (Q99LR1 whole entry): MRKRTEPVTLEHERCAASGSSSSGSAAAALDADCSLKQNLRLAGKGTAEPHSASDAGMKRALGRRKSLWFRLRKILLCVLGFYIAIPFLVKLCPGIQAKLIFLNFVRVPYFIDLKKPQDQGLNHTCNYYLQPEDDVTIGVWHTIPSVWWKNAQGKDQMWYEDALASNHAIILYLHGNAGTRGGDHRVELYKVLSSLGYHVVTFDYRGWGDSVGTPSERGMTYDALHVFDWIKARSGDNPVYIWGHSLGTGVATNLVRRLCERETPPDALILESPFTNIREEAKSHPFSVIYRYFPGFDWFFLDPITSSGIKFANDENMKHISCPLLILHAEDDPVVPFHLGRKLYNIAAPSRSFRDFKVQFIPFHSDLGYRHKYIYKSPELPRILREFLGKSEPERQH

In the case of `CCCCCCC/C=C/C=C/C(=O)NCCc1ccc(OC)c(OC)c1` [WOBE437, (2E,4E)-N-[2-(3,4-Dimethoxyphenyl)ethyl]dodeca-2,4-dienamide], the inhibition at 1 µM ([1]; 2-7 min of incubation) is reported as 50%, the inhibition at 1 µM ([1]; 10-20 min of incubation) is reported as 20 to 35% and the “Hill slope, 2-AG uptake” value [2] is reported as −0.973. For the same compound, the IC50 ([2]; Homo sapiens, U-937, 1 μM total 2-AG) was 283 ± 121 nM, the “inhibition of MAGL” value (MAGL) was “did not inhibit” and the “inhibition of ABHD6” value (ABHD6) was “did not inhibit”. The “inhibition of ABHD12” value (ABHD12) was “did not inhibit”, the “inhibition of COX-2 activity” value (COX-2) was “did not inhibit” and the “binding to FABP5” value [3] was “no binding”. The Kd [4] was 10 to 20 nM, the Ki (CB1 receptor) was 17000 nM and the brain level ([5]; 10 mg/kg p.o., 20 min, C57BL6/J) was 24.7 ± 25.3 pmol/g. The “apparent volume of distribution (Vd) at Cmax” value ([5]; 50 mg/kg p.o.) was 80.4 L/kg, the “apparent volume of distribution (Vd) at the steady state” value ([5]; 50 mg/kg p.o.) was 609 L/kg and the “brain concentration 3 h after administration” value ([5]; 50 mg/kg p.o.) was 18 pmol/g. The “drop of hepatic concentration between 20 and 40 min” value ([5]; 50 mg/kg p.o.) was 4 factor, the “estimated concentration in brain” value ([5]; 50 mg/kg p.o.) was 399.7 ± 154.7 nM and the “time until cleared from the brain” value ([5]; 50 mg/kg p.o.) was “approximately 180 min”. The “brain levels after p.o. as compared to i.p. (times lower)” value ([5]; 50 mg/kg p.o. vs 10 mg/kg i.p.) was “approximately 10 times”, the “highest concentration in kidney” value ([5]; 50 mg/kg p.o., 20 min) was 2277 ± 916 pmol/g and the “highest concentration in liver” value ([5]; 50 mg/kg p.o., 20 min) was 4720 ± 3273 pmol/g. The “highest concentration in spleen” value ([5]; 50 mg/kg p.o., 20 min) was 1030 ± 339 pmol/g, the brain level ([5]; 50 mg/kg p.o., 20 min, C57BL6/J) was 534.5 ± 109.9 pmol/g and the hepatic concentration ([5]; 50 mg/kg p.o., 40 min) was 1080 pmol/g. The Cmax ([5]; 50 mg/kg p.o.) was about 2000 nM, the Tmax ([5]; male, C57BL6/J, mouse, brain, plasma, po, 50 mg/kg, 50 mg/kg p.o., read-out: tmax in brain and plasma) was at most 20 min and the Tmax ([5]; male, C57BL6/J, mouse, kidney, liver, spleen, po, 50 mg/kg, 50 mg/kg p.o., read-out: tmax in kidney, liver and spleen (converted)) was 20 min. For the same compound, the Cmax ([5]; male, C57BL6/J, mouse, plasma, po, 50 mg/kg, 50 mg/kg p.o.) was 1930 ± 564 nM, the concentration at 20 min ([5]; male, mouse, plasma, 10 mg/kg p.o., 20 min, C57BL6/J) was 47.3 ± 32.5 nM and the concentration at 20 min ([5]; male, mouse, plasma, 50 mg/kg p.o., 20 min, C57BL6/J) was 1730 ± 703 nM. The bioavailability [6] was 20%, the “increase of pain threshold vs vehicle” value (BALB/c male mice; 50 mg/kg p.o.) was 61.7% and the “pain threshold (latency)” value (BALB/c male mice; 50 mg/kg p.o., vehicle 5.8±0.9 s) was 9.4 ± 1.9 s. For the same compound, the “pain threshold (latency)” value (BALB/c male mice; 100 mg/kg p.o.) was 11.7 ± 2.6 s, the ED50 (BALB/c male mice; Mus musculus, po, hot plate, read-out: estimated effective dose (ED50)) was 42.5 ± 3.9 mg/kg and the “minimum dose to significantly increase pain threshold” value (BALB/c male mice; p.o., hot plate) was 50 mg/kg. For the same compound, the “antinociceptive effect after rimonabant pre-treatment” value (BALB/c male mice; rimonabant 5 mg/kg i.p.) was “completely abolished”.
